How the values were obtained:
[1] = TEM analysis of heart tissue (cardiotoxicity); assay type: in vivo, mice; settings: hearts collected after 24 days; DOX@PLGA/PD-C coupled with NIR irradiation
Procedure: To study the cardiotoxicity of DOX, the hearts of the mice were analyzed by TEM. The formalin fixed samples were further fixed with 1% perosmic oxide for 2 h at 4° C., washed with water and then dehydrated in a series of alcohol solutions, embedded, and sliced with the thickness between 50 and 70 nm. TEM analysis was performed on Hitachi H8000 operating at 200 kV.

UMSCC 22A cells [2] = experiment: Cellular uptake by confocal microscopy and flow cytometry; assay type: cell-based; settings: flow cytometry, 3 h incubation, FIG. 8
Procedure: UMSCC 22A cells (300,000cells/well) were seeded in 6-well plates overnight. After that, DOX, DOX@PLGA/PD-PEG, and DOX@PLGA/PD-C nanoparticles were added at the DOX equivalent concentration of 1 μg/m L. In order to investigate the effect of EGFR on the cellular uptake of DOX@PLGA/PD-C nanoparticle, cells were pretreated with free anti-EGFR antibody (200 μg/mL) 30 min before adding DOX@PLGA/PD-C nanoparticles. The plate was incubated at 37° C. for 3 h. Then cells were washed, trypsinized and resuspended in PBS. DOX-positive cell population was quantified at Ex=488 nm, Em=585 nm using flow cytometry (BD Accuri C6, BD Biosciences).

UMSCC 22A cells [3] = experiment: Tumor growth inhibitory assay, subcutaneous head and neck cancer mouse model; assay type: in vivo, female Balb/c nude mice
Procedure: UMSCC 22A cells (3×10^6 cells in 100 μL DMEM medium) were inoculated subcutaneously in female Balb/c nude mice (8-10 week old, ˜20 g, Jackson Laboratory). The tumor volume was measured by a digital caliper and calculated according to the following formula: Tumor volume=tumor length)×(tumor width)^2/2. […] For the control group, PBS was injected. Mice were exposed to an 808 nm laser irradiation (2.83 W/cm^2) 3 h post injection for 10 min. The temperature of the mice during the irradiation was recorded by the FLIR thermal camera. The tumor volumes (V) of the mice were measured every other day for 24 days. The relative tumor volume expressed as V/V0 (V0 was the tumor volume when the treatment was initiated) was used to represent the tumor size change during the whole treatment process. After 24 days, the mice were sacrificed and the blood, tumor, liver, heart, lung, kidneys, and spleen were collected for further analysis. All organs were firstly fixed in 10% neutral buffered formalin for 48 h and then washed with PBS and finally kept in 70% ethanol at 4° C.

UMSCC 22A cells [4] = experiment: In vitro cytotoxicity (MTT cell proliferation assay) with or without NIR irradiation; assay type: cell-based; settings: FIG. 9
Procedure: The cytotoxicity of nanoparticles was evaluated by MTT assay. UMSCC 22A cells were seeded in 96-well plate (20,000 cells/well) for 24 h prior to the study. Following, either free DOX or DOX@PLGA/PD-PEG nanoparticles with DOX concentration equal to 2, 5 and 10 μg/mL were added. For comparison, PLGA/PD-PEG (no DOX encapsulation) nanoparticles were also added. The cells were then incubated 3 h in 95/5% air/CO2 at 37° C. followed by irradiation under a 808 nm laser for 10 min. After that, all wells were washed 2 times and replaced with fresh culture medium and kept incubation for another 24 h. Finally, MTT reagent (100 μL, 10%(w/w) in medium) was added and incubated for 4h, following the addition of MTT stop solution and the measurement of the optical density of the medium using a microplate reader (ELX808, Bio-Tech Instrument, Inc.) at λ=595 nm.

COc1cccc2c1C(=O)c1c(O)c3c(c(O)c1C2=O)C[C@@](O)(C(=O)CO)C[C@@H]3O[C@H]1C[C@H](N)[C@H](O)[C@H](C)O1 [free DOX, Doxorubicin]
heart tissue structure (mitochondria) by TEM [1]: significantly compromised | speed of entry into cancer cells (UMSCC 22A cells [2]): entered cancer cells faster than the DOX@PLGA/PD-C nanoparticles | tumor recurrence / regrowth (UMSCC 22A cells [3]; 24-day observation): gradually bounced back 10 days post treatment | tumor response after treatment (UMSCC 22A cells [3]; intratumoral, 40 μL, DOX equivalent 15 μg/mL, DOX@PLGA/PD-C coupled with NIR irradiation): only slightly reduced tumor size | H&E staining of tumor tissue (UMSCC 22A cells [3]; tumors collected after 24 days): kept the characteristics of squamous cell carcinoma | cell killing effect versus other treatments (UMSCC 22A cells [4]): higher cell killing effect than other treatments except at 10 μM dose
